Reference: ChEMBL document CHEMBL3217503, “Antivascular and anticancer activity of dihalogenated A-ring analogues of combretastatin A-4” (Medchemcomm, 2010)
Calls of active or inactive are those of the source. The rule behind the calls is not given here.

Columns and labels:
HUVEC [1] = test: Antivascular activity in growth factor-induced HUVEC after 45 hrs xCELLigence analysis; format: functional, cell-based; settings: Homo sapiens
SK-OV-3 [2] = test: Cell cycle arrest in human SKOV3 cells assessed as accumulation at S phase at 5 nM after 24 hrs by propidium iodide staining-based flow cytometry (reference value: 31.2%); format: functional
SK-OV-3 [3] = test: Cell cycle arrest in human SKOV3 cells assessed as accumulation at G2/M phase at 5 nM after 24 hrs by propidium iodide staining-based flow cytometry (reference value: 13.6%); format: functional
SK-OV-3 [4] = test: Cell cycle arrest in human SKOV3 cells assessed as accumulation at G1 phase at 5 nM after 24 hrs by propidium iodide staining-based flow cytometry (reference value: 54.4%); format: functional
HUVEC [5] = test: Antivascular activity in growth factor-induced HUVEC after 24 hrs xCELLigence analysis; format: functional, cell-based; settings: Homo sapiens
HeLa [6] = test: Antimitotic activity in human HeLa cells expressing GFP-tagged tubulin assessed as membrane blebbing during interphase at 10 nM after 51 mins by fluorescence-based spinning-disk confocal microscopy; format: functional, cell-based
SK-OV-3 [7] = test: Antimitotic activity in human SKOV3 cells at 1 to 100 nM after 16 hrs by Hoechst staining-based confocal microscopy; format: functional, cell-based
SK-OV-3 [8] = test: Antimitotic activity in taxol-resistant human SKOV3 cells at 1 to 100 nM after 16 hrs by Hoechst staining-based confocal microscopy; format: functional, cell-based
SK-OV-3 [9] = test: Cytotoxicity against human SKOV3 cells assessed as cell viability after 48 hrs by MTS assay; format: functional, cell-based; settings: SK-OV-3, 48 h
HeLa [10] = test: Antimitotic activity in human HeLa cells expressing GFP-tagged tubulin assessed as disappearance of mitotic spindle during metaphase at 10 to 100 nM after 21 to 36 mins by fluorescence-based spinning-disk confocal microscopy; format: functional, cell-based
HUVEC [11] = test: Antiproliferative activity against growth factor-induced HUVEC assessed as growth inhibition after 48 hrs by MTS assay; format: functional, cell-based; settings: Homo sapiens
HeLa [12] = test: Antimitotic activity in human HeLa cells assessed as disproportionate mitotic cells at 10 nM after 16 hrs by Hoechst staining-based confocal microscopy; format: functional, cell-based
HeLa [13] = test: Cytotoxicity against human HeLa cells assessed as cell viability after 48 hrs by MTS assay; format: functional, cell-based
HeLa [14] = test: Antimitotic activity in human HeLa cells assessed as membrane blebbing at 0.1 to 1 uM after 16 hrs by Hoechst staining-based confocal microscopy; format: functional, cell-based
HeLa [15] = test: Antimitotic activity in human HeLa cells assessed as redistribution of microtubules around nuclear envelope of cells at 100 nM after 16 hrs by Hoechst staining-based confocal microscopy; format: functional, cell-based
SK-OV-3 [16] = test: Cytotoxicity against taxol-resistant human SKOV3 cells assessed as cell viability after 48 hrs by MTS assay; format: functional, cell-based; settings: SK-OV-3, 48 h
HeLa [17] = test: Antimitotic activity in human HeLa cells assessed as depolymerisation of interphase microtubule network at 0.1 to 1 uM after 16 hrs by Hoechst staining-based confocal microscopy; format: functional, cell-based
PBMC = test: Cytotoxicity in human PBMC assessed as cell viability up to 10 uM after 48 hrs by MTS assay; format: cell-based
HeLa [18] = test: Antimitotic activity in human HeLa cells expressing GFP-tagged tubulin assessed as membrane blebbing during interphase at 10 to 100 nM after 31 to 34 mins by fluorescence-based spinning-disk confocal microscopy; format: functional, cell-based
HeLa [19] = test: Antimitotic activity in human HeLa cells expressing GFP-tagged tubulin assessed as collapse of mitotic spindle during anaphase at 10 nM after 31 mins by fluorescence-based spinning-disk confocal microscopy; format: functional, cell-based
SK-OV-3 [20] = test: Cell cycle arrest in human SKOV3 cells assessed as accumulation at G2/M phase at 200 nM after 24 hrs by propidium iodide staining-based flow cytometry (reference value: 13.6%); format: functional
K562 = test: Cytotoxicity against human K562 cells; format: functional, cell-based
HeLa [21] = test: Antimitotic activity in human HeLa cells assessed as depolymerisation of interphase microtubule network at 10 to 100 nM after 16 hrs by Hoechst staining-based confocal microscopy; format: functional, cell-based
HeLa [22] = test: Antimitotic activity in human HeLa cells assessed as change in interphase microtubule network at 1 nM after 16 hrs by Hoechst staining-based confocal microscopy; format: functional, cell-based

Q: Which results are given for `COc1ccc(/C=C\c2cc(Cl)c(OC)c(Cl)c2)cc1O`?
A: EC50 (HUVEC [1]): 2.3 nM; Activity (SK-OV-3 [2]): 18.6%; Activity (SK-OV-3 [3]): 32.2%; Activity (SK-OV-3 [4]): 43.7%; EC50 (HUVEC [5]): 2.6 nM

Q: Which results are given for `COc1ccc(/C=C\c2cc(I)c(OC)c(I)c2)cc1O`?
A: EC50 (HUVEC [1]): 0.9 nM; Activity (SK-OV-3 [2]): 12.9%; Activity (SK-OV-3 [3]): 83.6%; Activity (SK-OV-3 [4]): 1.3%; EC50 (HUVEC [5]): 0.9 nM

Q: Which results are given for `COc1ccc(/C=C\c2cc(Br)c(OC)c(Br)c2)cc1O`?
A: Activity (HeLa [6]): Active; Activity (SK-OV-3 [7]): Active; EC50 (HUVEC [1]): 1.1 nM; Activity (SK-OV-3 [8]): Active; Activity (SK-OV-3 [2]): 21%; EC50 (SK-OV-3 [9]): 1.7 nM; Activity (HeLa [10]): Active; EC50 (HUVEC [11]): 0.2 nM; Activity (HeLa [12]): Active; EC50 (HeLa [13]): 6.7 nM; Activity (SK-OV-3 [3]): 51.5%; Activity (HeLa [14]): Active; Activity (HeLa [15]): Active; EC50 (SK-OV-3 [16]): 1.1 nM; Activity (HeLa [17]): Active; Activity (PBMC): Non-toxic; Activity (HeLa [18]): Active; Activity (SK-OV-3 [4]): 25.7%; Activity (HeLa [19]): Active; EC50 (HUVEC [5]): 2.2 nM

Q: How did the EC50 (HUVEC [1]) turn out when `COc1ccc(/C=C\c2cc(F)c(OC)c(F)c2)cc1O` was run?
A: 224 nM

Q: What about the Activity (SK-OV-3 [20]) of the same compound?
A: 73.7%

Q: What about the EC50 (HUVEC [5]) of the same compound?
A: 193 nM

Q: With `COc1ccc(/C=C\c2ccccc2)cc1O` as the compound, how does the EC50 (K562) read?
A: 500 nM

Q: `COc1ccc(/C=C\c2cc(OC)c(OC)c(OC)c2)cc1O` [COMBRETASTATIN A4] was tested. Which EC50 (HUVEC [1]) did it give?
A: 0.9 nM

Q: What about the EC50 (K562) of the same compound?
A: 1 nM

Q: What about the Activity (SK-OV-3 [2]) of the same compound?
A: 23.1%

Q: And the EC50 (SK-OV-3 [9])?
A: 1.2 nM

Q: What about the EC50 (HUVEC [11]) of the same compound?
A: 3.2 nM

Q: And the EC50 (HeLa [13])?
A: 1.4 nM

Q: What about the Activity (HeLa [21]) of the same compound?
A: Active

Q: What about the Activity (SK-OV-3 [3]) of the same compound?
A: 30.5%

Q: What about the Activity (HeLa [22]) of the same compound?
A: inactive

Q: And the EC50 (SK-OV-3 [16])?
A: 3.1 nM

Q: And the Activity (PBMC)?
A: Non-toxic

Q: What about the Activity (SK-OV-3 [4]) of the same compound?
A: 40.1%

Q: And the EC50 (HUVEC [5])?
A: 1.9 nM

Q: For `COc1ccc(/C=C\c2ccc(C)c(C)c2)cc1O`, which EC50 (K562) is on record?
A: 70 nM

Q: How did the EC50 (K562) turn out when `COc1ccc(/C=C\c2cc(C)c(C)c(C)c2)cc1O` was run?
A: 20 nM
